# Measured values taken from PubChem BioAssay AID1963983 (Molecular Pharmacology Branch, DTP, NCI, 2024).
# Test system: 186277-243-T-J2-PDC multi-cell spheroid viability
# Assay: Anticancer human tumor 186277-243-T-J2-PDC patient-derived colon adenocarcinoma cell line growth inhibition [PI3K]
# Settings: for IC50: curve of first compound; for viability, T/C: stronger effect = lower value
# How it was run: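 We assembled tumor spheroids that included a stromal compartment of HUVEC and MSCs, then exposed them to targeted agents alone and together with PI3K pathway inhibitors. Concentration series descended by half-log from clinically achievable Cmax levels. Viability served as the endpoint.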
# [1] = second compound 0.0316 µM, first compound 0.0316 µM
# [2] = second compound 0.0316 µM, first compound 0.1 µM
# [3] = second compound 0.1 µM, first compound 0.0316 µM
# [4] = second compound 0.1 µM, first compound 0.1 µM
# [5] = second compound 0.316 µM, first compound 0.0316 µM
# [6] = second compound 0.316 µM, first compound 0.1 µM
# [7] = second compound 1 µM, first compound 0.0316 µM
# [8] = second compound 1 µM, first compound 0.1 µM
# 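Further: spheroids exposed to compounds for seven days before viability reading.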
# 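Wherever viability, T/C is given: 100% = DMSO vehicle control viability.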
smiles,measurement,setting,value
Cn1ncnc1[C@H]1c2n[nH]c(=O)c3cc(F)cc(c23)N[C@@H]1c1ccc(F)cc1 + CC(Nc1ccc2c(c1)OCCn1cc(N3C(=O)OCC3C(F)F)nc1-2)C(N)=O,IC50,second compound 0.00316 µM,> 100 nM
same,IC50,second compound 0.01 µM,> 100 nM
same,IC50,second compound 0.0316 µM,> 100 nM
same,IC50,second compound 0.1 µM,> 100 nM
same,IC50,second compound 0.316 µM,46.8 nM
same,IC50,second compound 1 µM,0.592 nM
same,"viability, T/C","second compound 0.00316 µM, first compound 0.000316 µM",93.7%
same,"viability, T/C","second compound 0.00316 µM, first compound 0.001 µM",85.8%
same,"viability, T/C","second compound 0.00316 µM, first compound 0.00316 µM",105%
same,"viability, T/C","second compound 0.00316 µM, first compound 0.01 µM",91%
same,"viability, T/C","second compound 0.00316 µM, first compound 0.0316 µM",101%
same,"viability, T/C","second compound 0.00316 µM, first compound 0.1 µM",94.9%
same,"viability, T/C","second compound 0.01 µM, first compound 0.000316 µM",101%
same,"viability, T/C","second compound 0.01 µM, first compound 0.001 µM",102%
same,"viability, T/C","second compound 0.01 µM, first compound 0.00316 µM",104%
same,"viability, T/C","second compound 0.01 µM, first compound 0.01 µM",102%
same,"viability, T/C","second compound 0.01 µM, first compound 0.0316 µM",102%
same,"viability, T/C","second compound 0.01 µM, first compound 0.1 µM",98.6%
same,"viability, T/C","second compound 0.0316 µM, first compound 0.000316 µM",117%
same,"viability, T/C","second compound 0.0316 µM, first compound 0.001 µM",107%
same,"viability, T/C","second compound 0.0316 µM, first compound 0.00316 µM",101%
same,"viability, T/C","second compound 0.0316 µM, first compound 0.01 µM",97.9%
same,"viability, T/C",[1],101%
same,"viability, T/C",[2],89%
same,"viability, T/C","second compound 0.1 µM, first compound 0.000316 µM",102%
same,"viability, T/C","second compound 0.1 µM, first compound 0.001 µM",105%
same,"viability, T/C","second compound 0.1 µM, first compound 0.00316 µM",112%
same,"viability, T/C","second compound 0.1 µM, first compound 0.01 µM",99.5%
same,"viability, T/C",[3],93.5%
same,"viability, T/C",[4],69.4%
same,"viability, T/C","second compound 0.316 µM, first compound 0.000316 µM",80.6%
same,"viability, T/C","second compound 0.316 µM, first compound 0.001 µM",84.4%
same,"viability, T/C","second compound 0.316 µM, first compound 0.00316 µM",65%
same,"viability, T/C","second compound 0.316 µM, first compound 0.01 µM",64.8%
same,"viability, T/C",[5],53.7%
same,"viability, T/C",[6],43.3%
same,"viability, T/C","second compound 1 µM, first compound 0.000316 µM",52.2%
same,"viability, T/C","second compound 1 µM, first compound 0.001 µM",46.6%
same,"viability, T/C","second compound 1 µM, first compound 0.00316 µM",46.9%
same,"viability, T/C","second compound 1 µM, first compound 0.01 µM",39.4%
same,"viability, T/C",[7],31.9%
same,"viability, T/C",[8],26.6%
CC1(C)CCC(CN2CCN(c3ccc(C(=O)NS(=O)(=O)c4ccc(NCC5CCOCC5)c([N+](=O)[O-])c4)c(Oc4cnc5[nH]ccc5c4)c3)CC2)=C(c2ccc(Cl)cc2)C1 + Cc1nc(NC(=O)N2CCCC2C(N)=O)sc1-c1ccnc(C(C)(C)C(F)(F)F)c1,IC50,second compound 0.0316 µM,4680 nM
same,IC50,second compound 0.1 µM,4440 nM
same,IC50,second compound 0.316 µM,4350 nM
same,IC50,second compound 1 µM,3930 nM
same,IC50,second compound 3.16 µM,1500 nM
same,IC50,second compound 10 µM,< 31.6 nM
same,"viability, T/C",[1],101%
same,"viability, T/C",[2],92.7%
same,"viability, T/C","second compound 0.0316 µM, first compound 0.316 µM",106%
same,"viability, T/C","second compound 0.0316 µM, first compound 1 µM",89.9%
same,"viability, T/C","second compound 0.0316 µM, first compound 3.16 µM",74.6%
same,"viability, T/C","second compound 0.0316 µM, first compound 10 µM",3.75%
same,"viability, T/C",[3],96.5%
same,"viability, T/C",[4],109%
same,"viability, T/C","second compound 0.1 µM, first compound 0.316 µM",95.3%
same,"viability, T/C","second compound 0.1 µM, first compound 1 µM",101%
same,"viability, T/C","second compound 0.1 µM, first compound 3.16 µM",69.8%
same,"viability, T/C","second compound 0.1 µM, first compound 10 µM",2.39%
same,"viability, T/C",[5],101%
same,"viability, T/C",[6],85.7%
same,"viability, T/C","second compound 0.316 µM, first compound 0.316 µM",111%
same,"viability, T/C","second compound 0.316 µM, first compound 1 µM",104%
same,"viability, T/C","second compound 0.316 µM, first compound 3.16 µM",68.2%
same,"viability, T/C","second compound 0.316 µM, first compound 10 µM",2.68%
same,"viability, T/C",[7],101%
same,"viability, T/C",[8],112%
same,"viability, T/C","second compound 1 µM, first compound 0.316 µM",96.9%
same,"viability, T/C","second compound 1 µM, first compound 1 µM",89.7%
same,"viability, T/C","second compound 1 µM, first compound 3.16 µM",61.5%
same,"viability, T/C","second compound 1 µM, first compound 10 µM",0.93%
same,"viability, T/C","second compound 3.16 µM, first compound 0.0316 µM",54.2%
same,"viability, T/C","second compound 3.16 µM, first compound 0.1 µM",61.3%
same,"viability, T/C","second compound 3.16 µM, first compound 0.316 µM",58.9%
same,"viability, T/C","second compound 3.16 µM, first compound 1 µM",51.8%
same,"viability, T/C","second compound 3.16 µM, first compound 3.16 µM",43%
same,"viability, T/C","second compound 3.16 µM, first compound 10 µM",0.38%
same,"viability, T/C","second compound 10 µM, first compound 0.0316 µM",16.6%
same,"viability, T/C","second compound 10 µM, first compound 0.1 µM",15.8%
same,"viability, T/C","second compound 10 µM, first compound 0.316 µM",16.6%
same,"viability, T/C","second compound 10 µM, first compound 1 µM",12.8%
same,"viability, T/C","second compound 10 µM, first compound 3.16 µM",13.8%
same,"viability, T/C","second compound 10 µM, first compound 10 µM",0.48%
Cn1cnc2c(F)c(Nc3ccc(Br)cc3Cl)c(C(=O)NOCCO)cc21 + Cc1nc(NC(=O)N2CCCC2C(N)=O)sc1-c1ccnc(C(C)(C)C(F)(F)F)c1,IC50,second compound 0.0316 µM,117 nM
same,IC50,second compound 0.1 µM,66.7 nM
same,IC50,second compound 0.316 µM,34.1 nM
same,IC50,second compound 1 µM,< 9.49 nM
same,IC50,second compound 3.16 µM,< 9.49 nM
same,IC50,second compound 10 µM,< 9.49 nM
same,"viability, T/C","second compound 0.0316 µM, first compound 0.00949 µM",107%
same,"viability, T/C","second compound 0.0316 µM, first compound 0.03 µM",80.3%
same,"viability, T/C","second compound 0.0316 µM, first compound 0.0949 µM",52.4%
same,"viability, T/C","second compound 0.0316 µM, first compound 0.3 µM",34.5%
same,"viability, T/C","second compound 0.0316 µM, first compound 0.949 µM",16.1%
same,"viability, T/C","second compound 0.0316 µM, first compound 3 µM",6.83%
same,"viability, T/C","second compound 0.1 µM, first compound 0.00949 µM",100%
same,"viability, T/C","second compound 0.1 µM, first compound 0.03 µM",67.8%
same,"viability, T/C","second compound 0.1 µM, first compound 0.0949 µM",42.1%
same,"viability, T/C","second compound 0.1 µM, first compound 0.3 µM",25.4%
same,"viability, T/C","second compound 0.1 µM, first compound 0.949 µM",13%
same,"viability, T/C","second compound 0.1 µM, first compound 3 µM",9.02%
same,"viability, T/C","second compound 0.316 µM, first compound 0.00949 µM",76.8%
same,"viability, T/C","second compound 0.316 µM, first compound 0.03 µM",53.5%
same,"viability, T/C","second compound 0.316 µM, first compound 0.0949 µM",28.9%
same,"viability, T/C","second compound 0.316 µM, first compound 0.3 µM",18.5%
same,"viability, T/C","second compound 0.316 µM, first compound 0.949 µM",8.47%
same,"viability, T/C","second compound 0.316 µM, first compound 3 µM",3.53%
same,"viability, T/C","second compound 1 µM, first compound 0.00949 µM",48.1%
same,"viability, T/C","second compound 1 µM, first compound 0.03 µM",28.6%
same,"viability, T/C","second compound 1 µM, first compound 0.0949 µM",16.6%
same,"viability, T/C","second compound 1 µM, first compound 0.3 µM",5.87%
same,"viability, T/C","second compound 1 µM, first compound 0.949 µM",4.04%
same,"viability, T/C","second compound 1 µM, first compound 3 µM",1.48%
same,"viability, T/C","second compound 3.16 µM, first compound 0.00949 µM",23%
same,"viability, T/C","second compound 3.16 µM, first compound 0.03 µM",10.6%
same,"viability, T/C","second compound 3.16 µM, first compound 0.0949 µM",5.72%
same,"viability, T/C","second compound 3.16 µM, first compound 0.3 µM",3.73%
same,"viability, T/C","second compound 3.16 µM, first compound 0.949 µM",2.72%
same,"viability, T/C","second compound 3.16 µM, first compound 3 µM",0.62%
same,"viability, T/C","second compound 10 µM, first compound 0.00949 µM",3.43%
same,"viability, T/C","second compound 10 µM, first compound 0.03 µM",3.24%
same,"viability, T/C","second compound 10 µM, first compound 0.0949 µM",1.7%
same,"viability, T/C","second compound 10 µM, first compound 0.3 µM",2.06%
same,"viability, T/C","second compound 10 µM, first compound 0.949 µM",1.21%
same,"viability, T/C","second compound 10 µM, first compound 3 µM",0.89%
